Data on 17 molecules can be found in patent US12071424B2, “IRE1 small molecule inhibitors” (Cornell University, priority 2017, dated 2024).

Assay [1] concerns the target T1, IRE1a (Homo sapiens, UniProt O75460).
T1 construct: purchased SignalChem
Description: In vitro FRET assay (IRE1a cleavage of XBP1 RNA probe). Format: biochemical. Particulars: 2 nM SignalChem IRE1a, tested as Formic Acid Salt (37: HCl Salt). In a few lines:
Human

The subject of assay [2] is IRE1a. Put plainly: IRE1a Endoribonuclease Nanoluciferase Assay (XBP1 luciferase reporter in 293T cells). Particulars: Homo sapiens, HEK-293T, ER stressor, tested as Formic Acid Salt (37: HCl Salt). Format: cell-based, human. The gist of the method:
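293T cells transiently transfected with a PGK-Luc2-P2A-XBP1u-Nanoluciferase-Pest reporter, replated after 6 h, then treated next day with ER stressors ± inhibitors. After lysis, firefly luminescence then nanoluciferase luminescence read sequentially (1000 ms integration each).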
In general terms: In a reporter assay the amount or activity of a reporter protein is the signal.

The subject of the next assay is 293T cells. Description: Growth assay (cytotoxicity). Format: cell-based, human. Particulars: Homo sapiens, HEK-293T, Formic Acid Salt (37: HCl Salt). As for the experimental part:
A growth assay was performed to evaluate the compounds disclosed herein for cytotoxicity. Briefly, 5,000,000 293T cells were resuspended in 18 mL of cDMEM for a final concentration of […]. […] In a separate 96 well dilution plate, 199 uL cDMEM and 1 uL of DMSO or any one of the compounds disclosed herein (shown as Test Compound 1, 2, 3, 4, 5, or 6 below) were added to wells A4, A8, C4, C8, E4, E8, G4, and G8, 133.3 uL cDMEM was added to wells 1, 2, 3, 5, 6, and 7 in rows A, C, E and G of the dilution plate. Compounds were serially diluted leftwards in threefold dilutions (66.7 uL into 133.3 uL cDMEM). 20 uL of each dilution was transferred in duplicate (duplicates in vertical paired wells) to the cells plated in the 96-well plate shown in Table 5, to the total concentrations shown below. 200 uL cDMEM was addled to media wells (wells G5-H8). The plate was then placed in a humidified chamber for a […], and then photographed (media was more yellow in wells with potent cell growth). Absorbance was then measured at ˜[…] (lower for more acidic media) and ˜450 nM (higher for more acidic media).

Molecules are shown by their SMILES.

T1 sequence (O75460 19-977): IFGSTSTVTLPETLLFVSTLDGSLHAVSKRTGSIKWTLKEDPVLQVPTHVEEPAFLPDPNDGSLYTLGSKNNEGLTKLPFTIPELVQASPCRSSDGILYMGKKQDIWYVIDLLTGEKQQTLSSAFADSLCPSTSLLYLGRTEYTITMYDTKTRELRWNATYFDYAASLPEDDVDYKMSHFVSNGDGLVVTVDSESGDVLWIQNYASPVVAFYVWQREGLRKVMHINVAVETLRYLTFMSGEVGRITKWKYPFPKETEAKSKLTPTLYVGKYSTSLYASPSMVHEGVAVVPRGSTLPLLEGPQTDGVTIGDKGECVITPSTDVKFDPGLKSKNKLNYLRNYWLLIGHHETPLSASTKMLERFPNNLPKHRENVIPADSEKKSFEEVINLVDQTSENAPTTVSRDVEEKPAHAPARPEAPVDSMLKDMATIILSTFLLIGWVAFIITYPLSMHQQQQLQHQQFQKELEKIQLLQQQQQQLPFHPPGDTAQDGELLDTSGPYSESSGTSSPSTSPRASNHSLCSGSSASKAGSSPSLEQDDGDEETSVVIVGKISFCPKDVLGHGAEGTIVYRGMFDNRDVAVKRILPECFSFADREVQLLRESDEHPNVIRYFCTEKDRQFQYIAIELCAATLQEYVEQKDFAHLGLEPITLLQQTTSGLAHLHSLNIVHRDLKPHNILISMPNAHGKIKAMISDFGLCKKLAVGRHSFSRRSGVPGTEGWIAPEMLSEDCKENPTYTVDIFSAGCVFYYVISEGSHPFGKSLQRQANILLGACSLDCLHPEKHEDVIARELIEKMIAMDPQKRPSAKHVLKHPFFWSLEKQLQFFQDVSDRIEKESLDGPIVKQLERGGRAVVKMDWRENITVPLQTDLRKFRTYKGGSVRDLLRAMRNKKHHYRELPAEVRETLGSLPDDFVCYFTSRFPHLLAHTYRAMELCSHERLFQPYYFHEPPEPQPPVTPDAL

Turning to `CCc1cc(-c2cnc(NS(=O)(=O)c3ccccc3Cl)nc2C)cc2cnc(N[C@H]3CC[C@H](N)CC3)nc12` [Compound 23], the IC50 (commonly the concentration that inhibits the measured activity by half) at IRE1a [1] is ≤ 5 nM. Also, in the assay on IRE1a [2], the EC50 (as a rule, the concentration needed to bring the measured effect to its halfway point) was ≤ 5 nM. Further, in the assay on 293T cells, the viability (commonly a per cent measure of how many cells are alive, often set against a control) at 0.185 µM fell in the range of 75 to 100%; the viability at 0.5556 µM was in the range of 50 to 75%; the viability at 1.667 µM was in the range of 50 to 75%; the viability at 5 µM is 75 to 100%.
As for `CCc1cc(-c2cnc(NS(=O)(=O)c3ccccc3Cl)cn2)cc2cnc(N[C@H]3CC[C@H](N)CC3)nc12` [Compound 25, N-(S-(2-(((1r,4r)-4-aminocyclohexyl)amino)-8-ethylquinazolin-6-yl)pyrazin-2-yl)-2-chlorobenzene-sulfonamide], the IC50 at IRE1a [1] was ≤ 5 nM. In addition, in the assay on IRE1a [2], the EC50 is ≤ 5 nM. Also, in the assay on 293T cells, the viability at 0.185 µM was 75 to 100%, the viability at 0.5556 µM is 75 to 100%, the viability at 1.667 µM is 75 to 100% and the viability at 5 µM was in the range of 75 to 100%.
Consider `CCc1cc(-c2ccc(NS(=O)(=O)c3ccccc3Cl)nc2)cc2cnc(N[C@H]3CC[C@H](N)CC3)nc12` [Compound 27, N-(5-(2-(((1r,4)-4-aminocyclohexyl)amino)-8-ethylquinazolin-6-yl)pyridin-2-yl)-2-chlorobenzene-sulfonamide], for which the IC50 on IRE1a [1] was ≤ 5 nM. Moreover, the concentration giving a half-maximal response (EC50) with IRE1a [2] was ≤ 5 nM. Besides, in the assay on 293T cells, the viability at 0.185 µM was 75 to 100%, the viability at 0.5556 µM lay within 75 to 100%, the viability at 1.667 µM fell in the range of 50 to 75% and the viability at 5 µM was in the range of 25 to 50%.
As to `CCc1cc(-c2ccc(NS(=O)(=O)c3ccccc3Cl)cn2)cc2cnc(N[C@H]3CC[C@H](N)CC3)nc12` [Compound 28], at IRE1a [1], the IC50 was ≤ 5 nM. Besides, the EC50 in the assay with IRE1a [2] was ≤ 5 nM. Moreover, in the assay with 293T cells, the viability at 0.185 µM was in the range of 75 to 100%, the viability at 0.5556 µM lay in the range of 75 to 100%, the viability at 1.667 µM was 50 to 75% and the viability at 5 µM lay within 25 to 50%.
Take `CCc1cc(-c2cc(NS(=O)(=O)c3ccccc3Cl)n[nH]2)cc2cnc(N[C@H]3CC[C@H](N)CC3)nc12` [Compound 29, N-(5-(2-(((1r,4r)-4-aminocyclohexyl)amino)-8-ethylquinazolin-6-yl)-1H-pyrazol-3-yl)-2-chlorobenzene-sulfonamide]: the IC50 at IRE1a [1] was ≤ 5 nM. The EC50 in the assay on IRE1a [2] lay within 100 to 10000 nM. In the assay on 293T cells, the viability at 0.185 µM was in the range of 75 to 100%, the viability at 0.5556 µM lay within 75 to 100%, the viability at 1.667 µM lay within 75 to 100% and the viability at 5 µM was 75 to 100%.
In the case of `CCc1cc(-c2ccc(NS(=O)(=O)c3ccccc3Cl)nn2)cc2cnc(N[C@H]3CC[C@H](N)CC3)nc12` [Compound 32, N-(6-(2-(((1r,4r)-4-aminocyclohexyl)amino)-8-ethylquinazolin-6-yl)pyridazin-3-yl)-2-chlorobenzene-sulfonamide], at IRE1a [1], the IC50 was ≤ 5 nM. In addition, the EC50 with IRE1a [2] is ≤ 5 nM. Besides, in the assay on 293T cells, the viability at 0.185 µM fell in the range of 75 to 100%, the viability at 0.5556 µM was 75 to 100%, the viability at 1.667 µM lay within 50 to 75% and the viability at 5 µM was in the range of 25 to 50%.
For `CCc1cc(-c2ncc(NS(=O)(=O)c3ccccc3Cl)cn2)cc2cnc(N[C@H]3CC[C@H](N)CC3)nc12` [Compound 33], the IC50 on IRE1a [1] was ≤ 5 nM. Further, the EC50 in the assay on IRE1a [2] was ≤ 5 nM. Further, in the assay with 293T cells, the viability at 0.185 µM is 75 to 100%, the viability at 0.5556 µM was in the range of 75 to 100%, the viability at 1.667 µM was in the range of 75 to 100% and the viability at 5 µM lay within 50 to 75%.
For `CCc1cc(NS(=O)(=O)c2ccccc2Cl)ccc1-c1cc(CC)c2nc(N[C@H]3CC[C@H](N)CC3)ncc2c1` [Compound 34, N-(4-(2-(((1r,4r)-4-aminocyclohexyl)amino)-8-ethylquinazolin-6-yl)-3-ethylphenyl)-2-chlorobenzene-sulfonamide], the IC50 at IRE1a [1] is ≤ 5 nM. Also, in the assay on IRE1a [2], the EC50 was 5 to 50 nM. In addition, in the assay with 293T cells, the viability at 0.185 µM is 75 to 100%, the viability at 0.5556 µM is 75 to 100%, the viability at 1.667 µM is 75 to 100% and the viability at 5 µM was ≤ 25%.
Consider `CCc1cc(-c2ccc(NS(=O)(=O)c3ccccc3Cl)cc2F)cc2cnc(N[C@H]3CC[C@H](N)CC3)nc12` [Compound 35, N-(4-(2-(((1r,4r)-4-aminocyclohexyl)amino)-8-ethylquinazolin-6-yl)-3-fluorophenyl)-2-chlorobenzene-sulfonamide], for which the IC50 on IRE1a [1] was ≤ 5 nM. Moreover, the EC50 with IRE1a [2] is ≤ 5 nM. For the same molecule, in the assay on 293T cells, the viability at 0.185 µM lay in the range of 75 to 100%, the viability at 0.5556 µM was in the range of 75 to 100%, the viability at 1.667 µM lay within 50 to 75% and the viability at 5 µM lay within 25 to 50%.
For `CCc1cc(-c2cnc(NS(=O)(=O)c3ccccc3Cl)nc2OC)cc2cnc(N[C@H]3CC[C@H](N)CC3)nc12` [Compound 46, N-(5-(2-(((1r,4r)-4-aminocyclohexyl)amino)-8-ethylquinazolin-6-yl)-4-methoxypyrimidin-2-yl)-2-chlorobenzene-sulfonamide], on IRE1a [1], the IC50 is ≤ 5 nM. For the same molecule, in the assay with IRE1a [2], the EC50 is ≤ 5 nM. Besides, in the assay on 293T cells, the viability at 0.185 µM lay within 75 to 100%, the viability at 0.5556 µM was 75 to 100%, the viability at 1.667 µM lay in the range of 75 to 100% and the viability at 5 µM fell in the range of 75 to 100%.
In the case of `CCc1cc(-c2ncc(NS(=O)(=O)c3ccccc3Cl)cc2F)cc2cnc(N[C@H]3CC[C@H](N)CC3)nc12` [Compound 52], at IRE1a [1], the IC50 was ≤ 5 nM. In addition, in the assay with IRE1a [2], the EC50 was ≤ 5 nM. Further, in the assay on 293T cells, the viability at 0.185 µM lay in the range of 75 to 100%, the viability at 0.5556 µM lay within 75 to 100%, the viability at 1.667 µM is 75 to 100% and the viability at 5 µM is 50 to 75%.
On to `CCc1cc(-c2cnc(NS(=O)(=O)c3ccccc3Cl)c(F)c2)cc2cnc(N[C@H]3CC[C@H](N)CC3)nc12` [Compound 55, N-(5-(2-(((1r,4r)-4-aminocyclohexyl)amino)-8-ethylquinazolin-6-yl)-3-fluoropyridin-2-yl)-2-chlorobenzene-sulfonamide], for which the IC50 at IRE1a [1] was ≤ 5 nM. The EC50 in the assay on IRE1a [2] was ≤ 5 nM. Besides, in the assay with 293T cells, the viability at 0.185 µM lay within 75 to 100%, the viability at 0.5556 µM lay in the range of 75 to 100%, the viability at 1.667 µM was 75 to 100% and the viability at 5 µM is 75 to 100%.
For `CCc1cc(-c2nnc(NS(=O)(=O)c3ccccc3Cl)cc2OC)cc2cnc(N[C@H]3CC[C@H](N)CC3)nc12` [Compound 65, N-(6-(2-(((1r,4r)-4-aminocyclohexyl)amino)-8-ethylquinazolin-6-yl)-5-methoxypyridazin-3-yl)-2-chlorobenzene-sulfonamide], the half-maximal inhibitory concentration (IC50) at IRE1a [1] was ≤ 5 nM. Besides, the EC50 with IRE1a [2] lay in the range of 5 to 50 nM. In addition, in the assay with 293T cells, the viability at 0.185 µM was in the range of 75 to 100%, the viability at 0.5556 µM was in the range of 75 to 100%, the viability at 1.667 µM lay within 75 to 100% and the viability at 5 µM was 50 to 75%.
As for `CCc1cc(-c2ccc(NS(=O)(=O)c3cccc(C)c3Cl)nc2C)cc2cnc(N[C@H]3CC[C@H](N(C)C)CC3)nc12` [Compound 160, 2-chloro-N-(5-(2-(((1r,4r)-4-(dimethylamino)cyclohexyl)amino)-8-ethylquinazolin-6-yl)-6-methylpyridin-2-yl)-3-methylbenzenesulfonamide], on IRE1a [1], the IC50 is ≤ 5 nM. Besides, in the assay on IRE1a [2], the EC50 is ≤ 5 nM.
For `CCc1c(F)c(-c2ccc(NS(=O)(=O)c3ccccc3Cl)nc2C)cc2cnc(N[C@H]3CC[C@H](N(C)C)CC3)nc12` [Compound 161, 2-chloro-N-(5-(2-(((1r,4r)-4-(dimethylamino)cyclohexyl)amino)-8-ethyl-7-fluoroquinazolin-6-yl)-6-methylpyridin-2-yl)benzenesulfonamide], the IC50 at IRE1a [1] is ≤ 5 nM. Moreover, in the assay with IRE1a [2], the EC50 is ≤ 5 nM.
In the case of `CCc1c(F)c(-c2cc(F)c(NS(=O)(=O)c3ccccc3Cl)nc2C)cc2cnc(N[C@H]3CC[C@H](N(C)C)CC3)nc12` [Compound 162, 2-chloro-N-(5-(2-(((1r,4r)-4-(dimethylamino)cyclohexyl)amino)-8-ethyl-7-fluoroquinazolin-6-yl)-3-fluoro-6-methylpyridin-2-yl)benzenesulfonamide], on IRE1a [1], the half-maximal inhibitory concentration (IC50) was ≤ 5 nM. Further, in the assay on IRE1a [2], the EC50 was ≤ 5 nM.
Take `CCc1c(F)c(-c2cc(F)c(NS(=O)(=O)c3ccccc3Cl)nc2OC)cc2cnc(N[C@H]3CC[C@H](N(C)C)CC3)nc12` [Compound 163, 2-chloro-N-(5-(2-(((1r,4r)-4-(dimethylamino)cyclohexyl)amino)-8-ethyl-7-fluoroquinazolin-6-yl)-3-fluoro-6-methoxypyridin-2-yl)benzenesulfonamide]: on IRE1a [1], the IC50 was ≤ 5 nM. Further, the EC50 in the assay with IRE1a [2] was ≤ 5 nM.
